{
  "source": "patent US8748461B2",
  "about": "“Metalloenzyme inhibitor compounds” (Viamet Pharmaceuticals, Inc., priority 2011, dated 2014)",
  "data": [
    {"tested_on": "Septoria tritici (ATCC 26517)", "test": "Minimum Inhibitory Concentration (MIC) vs. Septoria tritici", "assay_type": "cell-based", "conditions": "Zymoseptoria tritici, ATCC26517, 168 h; 50% reduction in growth of S. tritici; 22° C., seven days; read-out: Septoria Rating (MIC)", "procedure": "C. Minimum Inhibitory Concentration (MIC) vs. Septoria tritici Compounds were assessed for their ability to inhibit the growth of a common strain of the fungal plant pathogen Septoria tritici (ATCC 26517) using a procedure based on a Clinical and Laboratory Standards Institute (CLSI) microdilution assay protocol for filamentous fungi. Stock solutions of the test compounds and standards were prepared in DMSO at 6400 μg/mL. Each stock solution was used to prepare a 2-fold dilution series ranging from 16 to 0.016 μg/mL (total of 11 compound concentrations) in RPMI-1640 (Roswell Park Memorial Institute) medium containing 3-(N-morpholino)propanesulfonic acid (MOPS) buffer and 2% DMSO. A 100 μL aliquot of the dilutions was added to columns 1 (16 μg/mL compound) through 11 (0.016 μg/mL compound) of a 96-well microtiter plate. This format was replicated in a second row of the microtiter plate. Thus, each microtiter plate could include 11 concentrations of four test or control compounds replicated twice. A 100 μL aliquot of RPMI-1640/MOPS/2% DMSO medium was added to column 12 (no compound control) of the microtiter plate. A fresh culture of S. tritici was used to prepare a solution of approximately 5×10^4 colony-forming units per milliliter (cfu/mL) in RPMI/MOPS medium without DMSO. A 100 μL aliquot of this solution was added to all 96 wells in the microtiter plate. […] The assay plates were incubated at 22° C. for seven days in the dark without shaking. […] In each case of Table 3, the Septoria rating scale is as follows: […]", "units": {"MIC": "µg/mL"}, "values": [
      {"molecule": "OC(Cn1cnnn1)(c1ccc(F)cc1F)C(F)(F)c1ccc(OCc2ccc(Cl)cc2)cn1", "note": "(stereo not drawn) [Compound 4, 1-(5-(4-Chlorobenzyloxy)pyridin-2-yl)-2-(2,4-difluorophenyl)-1,1-difluoro-3-(1H-tetrazol-1-yl)propan-2-ol]", "MIC": "≤ 0.5"},
      {"molecule": "OC(Cn1cnnn1)(c1ccc(F)cc1F)C(F)(F)c1cc(OCc2ccc(F)cc2F)ccn1", "note": "(stereo not drawn) [Compound 13, 1-(4-((2,4-Difluorobenzyl)oxy)pyridin-2-yl)-2-(2,4-difluorophenyl)-1,1-difluoro-3-(1H-tetrazol-1-yl)propan-2-ol]", "MIC": "0.5 to 1.5"},
      {"molecule": "C=COc1ccc(C(F)(F)C(O)(Cn2cnnn2)c2ccc(F)cc2F)nc1", "note": "(stereo not drawn) [Compound 14, 2-(2,4-Difluorophenyl)-1,1-difluoro-3-(1H-tetrazol-1-yl)-1-(5-(vinyloxy)pyridin-2-yl)propan-2-ol]", "MIC": "1.5 to 4"},
      {"molecule": "N#Cc1ccc(CSc2ccc(C(F)(F)C(O)(Cn3ncnn3)c3ccc(F)cc3F)nc2)c(F)c1", "note": "(stereo not drawn) [Compound 16, 4-(((6-(2-(2,4-Difluorophenyl)-1,1-difluoro-2-hydroxy-3-(2H-tetrazol-2-yl)propyl)pyridin-3-yl)thio)methyl)-3-fluorobenzonitrile]", "MIC": "1.5 to 4"},
      {"molecule": "OC(Cn1cnnn1)(c1ccc(F)cc1F)C(F)(F)c1ccc(SCC(F)(F)F)cn1", "note": "(stereo not drawn) [Compound 18, 2-(2,4-Difluorophenyl)-1,1-difluoro-3-(1H-tetrazol-1-yl)-1-(5-((2,2,2-trifluoroethyl)thio)pyridin-2-yl)propan-2-ol]", "MIC": "1.5 to 4"},
      {"molecule": "OC(Cn1cnnn1)(c1ccc(F)cc1F)C(F)(F)c1ccc(OCc2ccc(F)cc2)cn1", "note": "(stereo not drawn) [Compound 19, 2-(2,4-Difluorophenyl)-1,1-difluoro-1-(5-((4-fluorobenzyl)oxy)pyridin-2-yl)-3-(1H-tetrazol-1-yl)propan-2-ol]", "MIC": "0.5 to 1.5"},
      {"molecule": "OC(Cn1cnnn1)(c1ccc(F)cc1F)C(F)(F)c1ccc(OCc2ccc(OCC(F)(F)F)cc2)cn1", "note": "(stereo not drawn) [Compound 20, 2-(2,4-Difluorophenyl)-1,1-difluoro-3-(1H-tetrazol-1-yl)-1-(5-((4-(2,2,2-trifluoroethoxy)benzyl)oxy)pyridin-2-yl)propan-2-ol]", "MIC": "≤ 0.5"},
      {"molecule": "OC(Cn1cnnn1)(c1ccc(F)cc1F)C(F)(F)c1ccc(OCc2cccc(OCC(F)(F)F)c2)cn1", "note": "(stereo not drawn) [Compound 25, 2-(2,4-Difluorophenyl)-1,1-difluoro-3-(1H-tetrazol-1-yl)-1-(5-((3-(2,2,2-trifluoroethoxy)benzyl)oxy)pyridin-2-yl)propan-2-ol]", "MIC": "≤ 0.5"},
      {"molecule": "N#CCOc1ccc(C(F)(F)C(O)(Cn2cnnn2)c2ccc(F)cc2F)nc1", "note": "(stereo not drawn) [Compound 29, 2-((6-(2-(2,4-Difluorophenyl)-1,1-difluoro-2-hydroxy-3-(1H-tetrazol-1-yl)propyl)pyridin-3-yl)oxy)acetonitrile]", "MIC": "1.5 to 4"},
      {"molecule": "OC(Cn1ncnn1)(c1ccc(F)cc1F)C(F)(F)c1ccc(OCc2ccccc2)cn1", "note": "(stereo not drawn) [Compound 31, 1-(5-(Benzyloxy)pyridin-2-yl)-2-(2,4-difluorophenyl)-1,1-difluoro-3-(2H-tetrazol-2-yl)propan-2-ol]", "MIC": "> 4"},
      {"molecule": "CC#CCOc1ccc(C(F)(F)C(O)(Cn2ncnn2)c2ccc(F)cc2F)nc1", "note": "(stereo not drawn) [Compound 33, 1-(5-(But-2-yn-1-yloxy)pyridin-2-yl)-2-(2,4-difluorophenyl)-1,1-difluoro-3-(2H-tetrazol-2-yl)propan-2-ol]", "MIC": "> 4"},
      {"molecule": "OC(Cn1ncnn1)(c1ccc(F)cc1F)C(F)(F)c1ccc(OCc2cc(F)cc(F)c2)cn1", "note": "(stereo not drawn) [Compound 36, 1-(5-((3,5-Difluorobenzyl)oxy)pyridin-2-yl)-2-(2,4-difluorophenyl)-1,1-difluoro-3-(2H-tetrazol-2-yl)propan-2-ol]", "MIC": "> 4"},
      {"molecule": "OC(Cn1ncnn1)(c1ccc(F)cc1F)C(F)(F)c1ccc(OCc2ccccn2)cn1", "note": "(stereo not drawn) [Compound 38, 2-(2,4-Difluorophenyl)-1,1-difluoro-1-(5-(pyridin-2-ylmethoxy)pyridin-2-yl)-3-(2H-tetrazol-2-yl)propan-2-ol]", "MIC": "> 4"},
      {"molecule": "OC(Cn1ncnn1)(c1ccc(F)cc1F)C(F)(F)c1ccc(OCC2CC2)cn1", "note": "(stereo not drawn) [Compound 40, 1-(5-(Cyclopropylmethoxy)pyridin-2-yl)-2-(2,4-difluorophenyl)-1,1-difluoro-3-(2H-tetrazol-2-yl)propan-2-ol]", "MIC": "> 4"},
      {"molecule": "OC(Cn1ccnn1)(c1ccc(F)cc1F)C(F)(F)c1ccc(OCc2cccc(F)c2F)cn1", "note": "(stereo not drawn) [Compound 44, 1-(5-((2,3-Difluorobenzyl)oxy)pyridin-2-yl)-2-(2,4-difluorophenyl)-1,1-difluoro-3-(1H-1,2,3-triazol-1-yl)propan-2-ol]", "MIC": "1.5 to 4"},
      {"molecule": "CC(Oc1ccc(C(F)(F)C(O)(Cn2ncnn2)c2ccc(F)cc2F)nc1)C(F)(F)F", "note": "(stereo not drawn) [Compound 48, 2-(2,4-Difluorophenyl)-1,1-difluoro-3-(2H-tetrazol-2-yl)-1-(5-((1,1,1-trifluoropropan-2-yl)oxy)pyridin-2-yl)propan-2-ol]", "MIC": "0.5 to 1.5"},
      {"molecule": "N#Cc1ccc(COc2ccc(C(F)(F)C(O)(Cn3ncnn3)c3ccc(F)cc3F)nc2)nc1", "note": "(stereo not drawn) [Compound 51, 6-(((6-(2-(2,4-Difluorophenyl)-1,1-difluoro-2-hydroxy-3-(2H-tetrazol-2-yl)propyl)pyridin-3-yl)oxy)methyl)nicotinonitrile]", "MIC": "> 4"},
      {"molecule": "N#Cc1cccc(COc2ccc(C(F)(F)C(O)(Cn3ncnn3)c3ccc(F)cc3F)nc2)c1", "note": "(stereo not drawn) [Compound 53, 3-(((6-(2-(2,4-Difluorophenyl)-1,1-difluoro-2-hydroxy-3-(2H-tetrazol-2-yl)propyl)pyridin-3-yl)oxy)methyl)benzonitrile]", "MIC": "> 4"},
      {"molecule": "N#Cc1ccc(COc2ccc(C(F)(F)C(O)(Cn3ncnn3)c3ccc(Cl)cc3F)nc2)cc1", "note": "(stereo not drawn) [Compound 56, 4-(((6-(2-(4-Chloro-2-fluorophenyl)-1,1-difluoro-2-hydroxy-3-(2H-tetrazol-2-yl)propyl)pyridin-3-yl)oxy)methyl)benzonitrile]", "MIC": "1.5 to 4"},
      {"molecule": "N#Cc1ccc(COc2ccc(C(F)(F)C(O)(Cn3ncnn3)c3ccc(F)cc3F)nc2)c(F)c1", "note": "(stereo not drawn) [Compound 58, 4-(((6-(2-(2,4-Difluorophenyl)-1,1-difluoro-2-hydroxy-3-(2H-tetrazol-2-yl)propyl)pyridin-3-yl)oxy)methyl)-3-fluorobenzonitrile]", "MIC": "1.5 to 4"},
      {"molecule": "OC(Cn1cnnn1)(c1ccc(F)cc1F)C(F)(F)c1ccc(OCc2ncc(F)cc2F)cn1", "note": "(stereo not drawn) [Compound 60, 2-(2,4-Difluorophenyl)-1-(5-((3,5-difluoropyridin-2-yl)methoxy)pyridin-2-yl)-1,1-difluoro-3-(1H-tetrazol-1-yl)propan-2-ol]", "MIC": "1.5 to 4"},
      {"molecule": "N#Cc1ccc(COc2ccc(C(F)(F)C(O)(Cn3ncnn3)c3ccc(Cl)cc3F)nc2)nc1", "note": "(stereo not drawn) [Compound 62, 6-(((6-(2-(4-Chloro-2-fluorophenyl)-1,1-difluoro-2-hydroxy-3-(2H-tetrazol-2-yl)propyl)pyridin-3-yl)oxy)methyl)nicotinonitrile]", "MIC": "1.5 to 4"},
      {"molecule": "CC#CCOc1ccc(C(F)(F)C(O)(Cn2cnnn2)c2ccc(Cl)cc2F)nc1", "note": "(stereo not drawn) [Compound 63, 1-(5-(But-2-yn-1-yloxy)pyridin-2-yl)-2-(4-chloro-2-fluorophenyl)-1,1-difluoro-3-(1H-tetrazol-1-yl)propan-2-ol]", "MIC": "≤ 0.5"},
      {"molecule": "CC#CCOc1ccc(C(F)(F)C(O)(Cn2ncnn2)c2ccc(Cl)cc2F)nc1", "note": "(stereo not drawn) [Compound 64, 1-(5-(But-2-yn-1-yloxy)pyridin-2-yl)-2-(4-chloro-2-fluorophenyl)-1,1-difluoro-3-(2H-tetrazol-2-yl)propan-2-ol]", "MIC": "> 4"},
      {"molecule": "N#Cc1cc(COc2ccc(C(F)(F)C(O)(Cn3ncnn3)c3ccc(F)cc3F)nc2)ccc1F", "note": "(stereo not drawn) [Compound 66, 5-(((6-(2-(2,4-Difluorophenyl)-1,1-difluoro-2-hydroxy-3-(2H-tetrazol-2-yl)propyl)pyridin-3-yl)oxy)methyl)-2-fluorobenzonitrile]", "MIC": "> 4"},
      {"molecule": "N#Cc1cccc(COc2ccc(C(F)(F)C(O)(Cn3ncnn3)c3ccc(F)cc3F)nc2)c1F", "note": "(stereo not drawn) [Compound 68, 3-(((6-(2-(2,4-Difluorophenyl)-1,1-difluoro-2-hydroxy-3-(2H-tetrazol-2-yl)propyl)pyridin-3-yl)oxy)methyl)-2-fluorobenzonitrile]", "MIC": "1.5 to 4"},
      {"molecule": "CC(C)COc1ccc(C(F)(F)C(O)(Cn2ncnn2)c2ccc(Cl)cc2F)nc1", "note": "(stereo not drawn) [Compound 70, 2-(4-Chloro-2-fluorophenyl)-1,1-difluoro-1-(5-isobutoxypyridin-2-yl)-3-(2H-tetrazol-2-yl)propan-2-ol]", "MIC": "> 4"},
      {"molecule": "OC(Cn1ncnn1)(c1ccc(Cl)cc1F)C(F)(F)c1ccc(OCC(F)(F)F)cn1", "note": "(stereo not drawn) [Compound 72, 2-(4-Chloro-2-fluorophenyl)-1,1-difluoro-3-(2H-tetrazol-2-yl)-1-(5-(2,2,2-trifluoroethoxy)pyridin-2-yl)propan-2-ol]", "MIC": "> 4"},
      {"molecule": "N#Cc1ccc(COc2ccc(C(F)(F)C(O)(Cn3ncnn3)c3ccc(F)cc3F)nc2)s1", "note": "(stereo not drawn) [Compound 74, 5-(((6-(2-(2,4-Difluorophenyl)-1,1-difluoro-2-hydroxy-3-(2H-tetrazol-2-yl)propyl)pyridin-3-yl)oxy)methyl)thiophene-2-carbonitrile]", "MIC": "> 4"},
      {"molecule": "N#Cc1ccc(Oc2ccc(C(F)(F)C(O)(Cn3ncnn3)c3ccc(Cl)cc3F)nc2)cc1", "note": "(stereo not drawn) [Compound 80, 4-((6-(2-(4-Chloro-2-fluorophenyl)-1,1-difluoro-2-hydroxy-3-(2H-tetrazol-2-yl)propyl)pyridin-3-yl)oxy)benzonitrile]", "MIC": "1.5 to 4"}
    ]}
  ]
}
